These results are taken from publication PMC4635503, “High-affinity nitrate/nitrite transporters NrtA and NrtB of Aspergillus nidulans exhibit high specificity and different inhibitor sensitivity” (Microbiology, 2015).

Values after ≈ are worked out from the molar mass of the structure shown. “Also recorded” adds a separate entry of the source. Where two headings read alike, the source gives them in different places. Bounds are passed on as bounds.

The test system of experiment [1] is A. nidulans mutant nrtB110 (functional NrtA). The experiment is described as follows: microbe, parasite or virus in culture. The experiment is classed as cell-based, Aspergillus nidulans. The note with it: nrtB110 (NrtA). As to the method:
(§1) Fungal growth tests were carried out in standard Petri dishes containing defined Aspergillus minimal medium (AMM) agar ([Cove, 1976]), with sodium nitrate or proline as the sole nitrogen source, at 1 or 10 mM concentration. Strains were tested for inhibition by bicarbonate, formate, oxalate, chlorite, sulphite (all purchased as the sodium salt), chlorate (potassium salt), malonate (acid form) or caesium (chloride salt). Stock aqueous solutions of inhibitors were adjusted to pH 6.5 and prepared immediately before use. It should be noted that at pH 6.5, bicarbonate is in approximately 50 % equilibrium with carbonic acid. […] Cultures were incubated routinely at 37 °C for 48 h, and the growth response was scored.
(§2) Each treatment was carried out in five replicates. […] As caesium was utilized as a chloride salt, a control for potential inhibition by chloride was assessed, by growth on 100 mM sodium chloride (Fig. 4).

The subject of experiment [2] is NrtB. Further details: method as in Brownlee & Arst (1983). The note with it: crnA1 (nrtA1) mutant, 1 mM chlorate, cells grown for 6 or 17 h; ref Brownlee & Arst (1983); cited from earlier work.
For experiment [3], the target named is T1, NrtA (Emericella nidulans, UniProt P22152). Further details: mutant nrtB110 (expressing a functional NrtA); endogenous in cells; host or cells: Aspergillus nidulans mycelium, knockout strain nrtB110, nitrate-induced; method as in Zhou et al. (2000). The note with it: NrtA expressed in Xenopus oocytes; ref Zhou et al. (2000); cited from earlier work.
The test system of experiment [4] is NrtB. The class given is cell-based, Aspergillus nidulans. The note with it: for nature of inhibition of nitrate transport (Lineweaver–Burk): NrtB (expressed in nrtA1); for Ki: nrtA1 (NrtB), inhibitor concentration reducing net nitrate uptake rate by 50 % of control, mean ± SE. On the procedure: (§3) These were performed on cultures grown in liquid AMM with 5 mM urea as nitrogen source for a total of 6.5 h at 37 °C ([Brownlee & Arst, 1983]). Urea was used as it (i) is a neutral nitrogen source, neither inducing nor repressing nitrate transport, (ii) has been used routinely in the past and (iii) permitted direct comparison with previously published results. […] Transporter activity was induced by the addition of 10 mM sodium nitrate 100 min prior to assay as described previously ([Brownlee & Arst, 1983]). Assays were carried out in triplicate, generally at pH 6.5, on three independently grown cultures for each strain and expressed as nmol nitrate removed from the medium min^ − 1 (mg dried mycelium)^ − 1, as discussed before ([Brownlee & Arst, 1983]; [Kinghorn et al., 2005]; [Unkles et al., 2012]). Both carbonic acid and bicarbonate chemical species can occur at pH 6.5. Thus potential inhibition of nitrate transport by carbonic acid/bicarbonate was tested at pH 6.5 and bicarbonate at pH 8.3.
(§4) To effectively assess net uptake, it is necessary that any export, i.e. simultaneous transport in the reverse direction, is minimal.
(§5) Values of K m and V max were calculated by linear regression of Lineweaver–Burk analyses (1/v against 1/s, where v is net uptake and s is substrate concentration). The kinetic values of nitrate transport by the WT and mutants were compared with those from a previous report ([Unkles et al., 2001]). […] Therefore the kinetic values in the absence of inhibitors from the present study were used as control values. Each K i value was determined by regression of the rates of net nitrate uptake transport versus the range of concentrations of a particular inhibitor: linear or nonlinear regression was used, depending on which type provided the highest r ^2 value. Calculated from each regression was the concentration of the inhibitor that reduced net nitrate uptake rate by 50 % of the control (without inhibitor) rate, which was assessed as the K i value. Lineweaver–Burk analyses were carried out to determine the nature of the inhibition of nitrate transport for each inhibitor.

Experiment [5] addresses NrtA, NrtB (WT strain). The experiment can be described thus: Net nitrate uptake assay and kinetics, WT strain. The class given is cell-based, Aspergillus nidulans. As to conditions: WT (NrtA, NrtB), inhibitor concentration reducing net nitrate uptake rate by 50 % of control, mean ± SE. On the procedure: as §3, §4, §5
The test system of experiment [6] is A. nidulans WT strain (NrtA, NrtB). The experiment can be described thus: MIC growth test on solid AMM, WT strain. The class given is cell-based, Aspergillus nidulans. As to conditions: Aspergillus nidulans. As to the method:
as §1, §2

The subject of experiment [7] is NrtA, NrtB (WT strain). Further details: method as in Brownlee & Arst (1983). The note with it: 1 mM chlorate, cells grown for 6 or 17 h, ref Brownlee & Arst (1983); cited from earlier work.
Experiment [8] concerns the target T1, NrtA. The experiment is described as follows: cell-based. Further details: mutant nrtB110 (expressing a functional NrtA); endogenous in cells; host or cells: Aspergillus nidulans mycelium, knockout strain nrtB110, nitrate-induced; species or system Aspergillus nidulans. As to conditions: for Ki: K i, nrtB110 (NrtA), inhibitor concentration reducing net nitrate uptake rate by 50 % of control, mean ± SE; for nature of inhibition of nitrate transport (Lineweaver–Burk): NrtA (expressed in nrtB110). On the procedure: as §3, §4, §5

Experiment [9] deals with nitrate transport by NrtA and NrtB. The experiment can be described thus: Net nitrate transport inhibition assays, strain not specified. The class given is cell-based, Aspergillus nidulans. The note with it: net nitrate transport; data not shown. On the procedure:
as §3, §4

Experiment [10] relates to A. nidulans double mutant tbl110 (nrtA747 nrtB110, neither transporter). The experiment is described as follows: microbe, parasite or virus in culture. The class given is cell-based, Aspergillus nidulans. The note with it: T110 (neither transporter). On the procedure:
as §1, §2

Experiment [11] deals with A. nidulans mutant nrtA1 (functional NrtB). The experiment is described as follows: microbe, parasite or virus in culture. The class given is cell-based, Aspergillus nidulans. The note with it: Aspergillus nidulans. On the procedure:
as §1, §2

Experiment [12] relates to NitA. As to conditions: data not shown.
[13] abbreviates: Aspergillus nidulans, 1 mM nitrate as sole nitrogen source.
[14] abbreviates: Aspergillus nidulans, 10 mM proline as sole nitrogen source.
[15] abbreviates: 1 mM nitrate as sole nitrogen source, solid AMM, 37 °C.
[16] abbreviates: 1 mM proline as sole nitrogen source.
The mark [17] stands for this setting: 10 mM proline as sole nitrogen source.
[18] abbreviates: Aspergillus nidulans, 1 mM proline as sole nitrogen source.
Where [19] appears, read: 10 mM nitrate as sole nitrogen source.

T1 sequence (P22152 whole entry): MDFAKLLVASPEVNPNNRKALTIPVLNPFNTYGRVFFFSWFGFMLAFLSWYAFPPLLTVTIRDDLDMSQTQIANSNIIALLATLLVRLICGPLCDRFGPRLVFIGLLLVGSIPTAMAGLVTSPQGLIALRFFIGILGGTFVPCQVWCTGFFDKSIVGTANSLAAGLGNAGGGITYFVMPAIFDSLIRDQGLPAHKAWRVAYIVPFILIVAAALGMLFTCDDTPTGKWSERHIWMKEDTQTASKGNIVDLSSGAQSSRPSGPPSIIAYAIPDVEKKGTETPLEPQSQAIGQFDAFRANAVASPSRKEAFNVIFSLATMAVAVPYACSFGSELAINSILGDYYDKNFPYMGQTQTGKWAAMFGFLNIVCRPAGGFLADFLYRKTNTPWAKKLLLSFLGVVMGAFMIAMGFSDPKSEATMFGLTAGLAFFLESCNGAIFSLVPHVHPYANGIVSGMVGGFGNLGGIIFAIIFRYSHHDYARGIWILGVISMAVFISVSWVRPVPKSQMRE

A word on the Ki: it is the equilibrium dissociation constant of an inhibitor or competing ligand from its target. Lower therefore signals tighter binding. Regarding `[O-][Cl+2]([O-])O` [Chlorate, chlorate], the MIC in experiment [1] (setting [13]) is 50000 µM (≈ 4220 µg/mL); in experiment [1] (setting [14]) it was 50000 µM (≈ 4220 µg/mL); in [6] (setting [15]) it was 100000 µM (≈ 8450 µg/mL); in [6] (setting [16]), 50000 µM (≈ 4220 µg/mL); in experiment [6] (setting [17]), 25000 µM (≈ 2110 µg/mL). The “reduction of nitrate transport” value in experiment [2] and in [7] was 80% in each case. Also, the “substrate / transport by NrtA in oocytes” value in experiment [3] is on record as “did not, however, observe transport”. Also, the “nature of inhibition of nitrate transport (Lineweaver–Burk)” value in experiment [4] is recorded as “non-competitive inhibition”; in experiment [4] (listed as chlorate) it was “non-competitively”; in experiment [8], “competition with nitrate”; in experiment [8] (listed as chlorate), “competitive inhibitor”. Also, the Ki in [4] is 44.3 ± 2.3 mM; in experiment [4] (listed as chlorate), roughly 44 mM; in experiment [5], 29.9 ± 3.7 mM; in [5] (listed as chlorate), roughly 30 mM; in experiment [8], 29.3 ± 2.8 mM. Besides, the “net nitrate transport activity retained” value in [4] (nrtA1 (functional NrtB), 10 mM chlorate, data not shown) amounted to 93%. In addition, the activity at 10000 µM in experiment [8] (read-out: net nitrate transport activity retained) was determined as 65%.
On to `[O-][Cl+]O` [Chlorite, chlorite], for which the “concentration sufficient to prevent transport of nitrate completely” value in experiment [9] amounted to 1 mM. The MIC in [10] (setting [18]) is greater than 500 µM; in [10] (setting [14]), 5000 µM (≈ 342 µg/mL); in experiment [10] (setting [16]), greater than 500 µM; in experiment [11] (1 mM nitrate as sole nitrogen source), 200 µM (≈ 13.7 µg/mL); in [11] (setting [16]) it was 500 µM (≈ 34.2 µg/mL); in [11] (setting [19]), 500 µM (≈ 34.2 µg/mL). Besides, the MIC was determined as 2000 µM (≈ 137 µg/mL) in experiment [11] (setting [17]); 100 µM (≈ 6.85 µg/mL) in [1] (setting [13]); 500 µM (≈ 34.2 µg/mL) in experiment [1] (setting [18]); 500 µM (≈ 34.2 µg/mL) in [1] (Aspergillus nidulans, 10 mM nitrate as sole nitrogen source); 3000 µM (≈ 205 µg/mL) in experiment [1] (setting [14]); 3000 µM (≈ 205 µg/mL) in experiment [1] (setting [17]). The MIC in experiment [6] (setting [15]) was found to be 200 µM (≈ 13.7 µg/mL); in experiment [6] (setting [16]) it was 500 µM (≈ 34.2 µg/mL); in experiment [6] (setting [19]), 500 µM (≈ 34.2 µg/mL); in experiment [6] (setting [17]), 1000 µM (≈ 68.5 µg/mL). The “substrate / transport by NrtA in oocytes” value in experiment [3] is “substrate”. Besides, the “nature of inhibition of nitrate transport (Lineweaver–Burk)” value in experiment [4] was “non-competitive inhibition”; in [8] it was “competitive; also recorded: competition”. Further, the Ki came out at 0.34 ± 0.02 mM in experiment [4], 0.35 ± 0.02 mM in [5] and 0.49 ± 0.01 mM in experiment [8]. Besides, in experiment [12], the “substrate for nitrite transporter NitA” value is listed as “significant substrate”.
